Experiments:
[1] = system: cocklebur; assay: Test C pre-/postemergence herbicide test; format: in vivo, Xanthium strumarium; conditions: for Plant response rating, Cocklebur / Plant response rating (0 = no effect, 100 = complete control), Cocklebur: preemergence
How it was run: (§1)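 Visual ratings on a 0–100 scale (100 = complete control) made versus untreated controls after 12 to 14 greenhouse days. Test chemicals, formulated in surfactant-containing non-phytotoxic solvent, applied preemergence to planted seeds or postemergence to 1- to 4-leaf plants (2 to 18 cm).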

[2] = system: corn; assay: Test C pre-/postemergence herbicide test; format: in vivo, Zea mays; conditions: preemergence
How it was run: as §1

[3] = system: smallflower umbrella sedge; assay: Test C flooded paddy test; format: in vivo, Cyperus difformis; conditions: for Plant response rating, Sedge, Umbrella: 500 g ai/ha, visual rating after 12 to 14 days
[4] = system: rice; assay: Test C flooded paddy test; format: in vivo, Oryza sativa; conditions: for Plant response rating, Rice: 500 g ai/ha, visual rating after 12 to 14 days
How it was run: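 Injury scored visually against controls on a 0 (no effect) to 100 (complete control) scale, 12 to 14 days after treatment in greenhouse. Flooded paddy plants treated at 2-leaf stage; postemergence plants at 1- to 4-leaf stage, 2 to 18 cm tall.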

[5] = system: velvetleaf; assay: Test C pre-/postemergence herbicide test; format: in vivo, Abutilon theophrasti; conditions: preemergence
How it was run: as §1

[6] = system: bermudagrass; assay: Test C pre-/postemergence herbicide test; format: in vivo, Cynodon dactylon
How it was run: as §1

[7] = system: ducksalad; assay: Test C flooded paddy test; format: in vivo, Heteranthera limosa; conditions: for Plant response rating, Ducksalad: 500 g ai/ha, visual rating after 12 to 14 days
[8] = system: soybean; assay: Test C pre-/postemergence herbicide test; format: in vivo, Glycine max; conditions: preemergence
How it was run: as §1

[9] = system: goosegrass; assay: Test C pre-/postemergence herbicide test; format: in vivo, Eleusine indica; conditions: preemergence
How it was run: as §1

[10] = system: johnsongrass; assay: Test C pre-/postemergence herbicide test; format: in vivo, Sorghum halepense; conditions: preemergence
How it was run: as §1

[11] = 125 g ai/ha, scale 0 (no effect) to 100 (complete control), visual, 12 to 14 days
[12] = 62 g ai/ha, scale 0 to 100 (0 no effect, 100 complete control)
[13] = 125 g ai/ha, scale of 0 to 100, 0 is no effect, 100 is complete control
[14] = 250 g ai/ha, scale of 0 to 100, 0 is no effect, 100 is complete control
[15] = scale 0 to 100 (0 no effect, 100 complete control)
[16] = 125 g ai/ha, scale 0 (no effect) to 100 (complete control), visual, 12 to 14 days, preemergence
[17] = 500 g ai/ha, scale 0 to 100 (0 no effect, 100 complete control), visual, 12 to 14 days
[18] = 125 g ai/ha, scale 0 to 100 (0 no effect, 100 complete control)
[19] = 62 g ai/ha, preemergence, scale 0 to 100, 0 no effect, 100 complete control
[20] = 250 g ai/ha, scale 0-100, preemergence
[21] = Preemergence, 500 g ai/ha, scale 0 to 100, 0 no effect, 100 complete control

CCC(=NO)c1cccc(NC(=O)c2cc(C(C)(C)C)nn2C)c1 [Compound 118]
Plant response rating, Cocklebur ([1]; 31 g ai/ha, scale 0 to 100): 0 | Plant response rating (0 = no effect, 100 = complete control), Cocklebur ([1]; 62 g ai/ha): 20 | Plant response rating, Cocklebur [1, 11]: 20 | Plant response rating, Corn ([2]; 31 g ai/ha, scale 0 to 100): 0 | Plant response rating (0 = no effect, 100 = complete control), Corn ([2]; 62 g ai/ha): 0 | Plant response rating, Corn [2, 11]: 10 | Sedge, Umbrella plant response rating [3, 12]: 0 | Sedge, Umbrella plant response rating [3, 13]: 50 | Sedge, Umbrella plant response rating [3, 14]: 50 | Plant response rating, Sedge, Umbrella [3, 15]: 50 | Rice plant response rating [4, 12]: 20 | Rice plant response rating [4, 13]: 30 | Rice plant response rating [4, 14]: 40 | Plant response rating, Rice [4, 15]: 50 | Plant response rating, Velvetleaf ([5]; 31 g ai/ha, scale 0 to 100): 0 | Plant response rating, Velvetleaf [5, 11]: 40 | Plant response rating, Bermudagrass ([6]; 16 g ai/ha, scale 0 to 100, 0 no effect, 100 complete control, last section of Table C (species set of preemergence test)): 0 | Plant response rating, Bermudagrass ([6]; 31 g ai/ha, preemergence, scale 0 to 100): 30 | Plant response rating (0 = no effect, 100 = complete control), Bermudagrass ([6]; 62 g ai/ha, preemergence): 90 | Plant response rating, Bermudagrass [6, 16]: 100 | Ducksalad plant response rating [7, 12]: 0 | Ducksalad plant response rating [7, 13]: 50 | Ducksalad plant response rating [7, 14]: 50 | Plant response rating, Ducksalad [7, 15]: 50 | Plant response rating, Soybean ([8]; 31 g ai/ha, scale 0 to 100): 0 | Plant response rating (0 = no effect, 100 = complete control), Soybean ([8]; 62 g ai/ha): 0 | Plant response rating, Soybean [8, 11]: 10 | Plant response rating, Goosegrass ([9]; 31 g ai/ha, scale 0 to 100): 20 | Plant response rating (0 = no effect, 100 = complete control), Goosegrass ([9]; 62 g ai/ha): 20 | Plant response rating, Goosegrass [9, 11]: 80 | Plant response rating, Johnsongrass ([10]; 31 g ai/ha, scale 0 to 100): 30 | Plant response rating (0 = no effect, 100 = complete control), Johnsongrass ([10]; 62 g ai/ha): 40 | Plant response rating, Johnsongrass [10, 11]: 100

CCC1=NN(C(C)(C)C)CC1C(=O)Nc1cc(C(=O)N2CC=CC2)ccc1F (racemic) [Compound 340]
Plant response rating, Cocklebur ([1]; 62 g ai/ha, scale 0 to 100): 0 | Plant response rating (0 = no effect, 100 = complete control), Cocklebur ([1]; 125 g ai/ha): 0 | Plant response rating, Cocklebur ([1]; 250 g ai/ha, scale 0-100): 0 | Plant response rating, Cocklebur [1, 17]: 40 | Plant response rating, Corn ([2]; 62 g ai/ha, scale 0 to 100): 5 | Plant response rating (0 = no effect, 100 = complete control), Corn ([2]; 125 g ai/ha): 45 | Plant response rating, Corn ([2]; 250 g ai/ha, scale 0-100): 45 | Plant response rating, Corn [2, 17]: 50 | Sedge, Umbrella plant response rating ([3]; 62 g ai/ha, scale 0 to 100): 50 | Sedge, Umbrella plant response rating [3, 18]: 70 | Sedge, Umbrella plant response rating [3, 14]: 70 | Plant response rating, Sedge, Umbrella [3, 15]: 90 | Rice plant response rating ([4]; 62 g ai/ha, scale 0 to 100): 20 | Rice plant response rating [4, 18]: 40 | Rice plant response rating [4, 14]: 70 | Plant response rating, Rice [4, 15]: 80 | Plant response rating, Velvetleaf ([5]; 62 g ai/ha, scale 0 to 100): 0 | Plant response rating (0 = no effect, 100 = complete control), Velvetleaf ([5]; 125 g ai/ha): 60 | Plant response rating, Velvetleaf ([5]; 250 g ai/ha, scale 0-100): 95 | Plant response rating, Velvetleaf [5, 17]: 100 | Plant response rating, Bermudagrass [6, 19]: 20 | Plant response rating (0 = no effect, 100 = complete control), Bermudagrass ([6]; 125 g ai/ha, preemergence): 70 | Plant response rating, Bermudagrass [6, 20]: 85 | Plant response rating, Bermudagrass ([6]; 500 g ai/ha, scale 0 to 100 (0 no effect, 100 complete control), visual, 12 to 14 days, preemergence): 100 | Ducksalad plant response rating ([7]; 62 g ai/ha, scale 0 to 100): 50 | Ducksalad plant response rating [7, 18]: 70 | Ducksalad plant response rating [7, 14]: 70 | Plant response rating, Ducksalad [7, 15]: 90 | Plant response rating, Soybean ([8]; 62 g ai/ha, scale 0 to 100): 0 | Plant response rating (0 = no effect, 100 = complete control), Soybean ([8]; 125 g ai/ha): 0 | Plant response rating, Soybean ([8]; 250 g ai/ha, scale 0-100): 0 | Plant response rating, Soybean [8, 17]: 10 | Plant response rating, Goosegrass ([9]; 62 g ai/ha, scale 0 to 100): 5 | Plant response rating (0 = no effect, 100 = complete control), Goosegrass ([9]; 125 g ai/ha): 60 | Plant response rating, Goosegrass ([9]; 250 g ai/ha, scale 0-100): 85 | Plant response rating, Goosegrass [9, 17]: 90 | Plant response rating, Johnsongrass ([10]; 62 g ai/ha, scale 0 to 100): 15 | Plant response rating (0 = no effect, 100 = complete control), Johnsongrass ([10]; 125 g ai/ha): 50 | Plant response rating, Johnsongrass ([10]; 250 g ai/ha, scale 0-100): 50 | Plant response rating, Johnsongrass [10, 17]: 90

CCN1N=C(C(C)(C)C)CC1C(=O)Nc1cc(C(=O)N2CCCC2)ccc1F (racemic) [Compound 309]
Plant response rating, Cocklebur ([1]; 62 g ai/ha, scale 0 to 100): 0 | Plant response rating, Cocklebur [1, 11]: 10 | Plant response rating, Cocklebur ([1]; 250 g ai/ha, scale 0-100): 60 | Cocklebur plant response rating [1, 21]: 60 | Plant response rating, Corn ([2]; 62 g ai/ha, scale 0 to 100): 5 | Plant response rating, Corn [2, 11]: 20 | Plant response rating, Corn ([2]; 250 g ai/ha, scale 0-100): 40 | Plant response rating, Corn [2, 17]: 60 | Sedge, Umbrella plant response rating ([3]; 62 g ai/ha, scale 0 to 100): 80 | Sedge, Umbrella plant response rating [3, 18]: 80 | Sedge, Umbrella plant response rating [3, 14]: 80 | Plant response rating, Sedge, Umbrella [3, 15]: 80 | Rice plant response rating ([4]; 62 g ai/ha, scale 0 to 100): 60 | Rice plant response rating [4, 18]: 70 | Rice plant response rating [4, 14]: 75 | Plant response rating, Rice [4, 15]: 75 | Plant response rating, Velvetleaf ([5]; 62 g ai/ha, scale 0 to 100): 5 | Plant response rating, Velvetleaf ([5]; 250 g ai/ha, scale 0-100): 75 | Plant response rating, Velvetleaf [5, 17]: 100 | Plant response rating, Bermudagrass [6, 19]: 90 | Plant response rating, Bermudagrass [6, 16]: 90 | Plant response rating, Bermudagrass [6, 20]: 95 | Bermudagrass plant response rating [6, 21]: 100 | Ducksalad plant response rating ([7]; 62 g ai/ha, scale 0 to 100): 85 | Ducksalad plant response rating [7, 18]: 90 | Ducksalad plant response rating [7, 14]: 90 | Plant response rating, Ducksalad [7, 15]: 90 | Plant response rating, Soybean ([8]; 62 g ai/ha, scale 0 to 100): 20 | Plant response rating, Soybean ([8]; 250 g ai/ha, scale 0-100): 80 | Plant response rating, Soybean [8, 17]: 80 | Plant response rating, Goosegrass ([9]; 62 g ai/ha, scale 0 to 100): 85 | Plant response rating, Goosegrass [9, 11]: 85 | Plant response rating, Goosegrass ([9]; 250 g ai/ha, scale 0-100): 100 | Plant response rating, Goosegrass [9, 17]: 100 | Plant response rating, Johnsongrass ([10]; 62 g ai/ha, scale 0 to 100): 75 | Plant response rating, Johnsongrass [10, 11]: 80 | Plant response rating, Johnsongrass ([10]; 250 g ai/ha, scale 0-100): 95 | Plant response rating, Johnsongrass [10, 17]: 100
